In brackets after ≈: the same amount, converted by molar mass.
Tests used:
Mycobacterium abscessus = assay: MIC by broth microdilution in CAMHB, clinical isolates; type: cell-based; settings: Mycobacteroides abscessus
Procedure: (§1) A total of 24 clinical isolates of Mycobacterium abscessus, 22 clinical isolates of Mycobacterium chelonae and 20 clinical isolates of Mycobacterium fortuitum were tested in the study. The study also used the antibiotics tigecycline, doxycycline and amikacin for comparison purposes. […] Amikacin was dissolved in DMSO prior to freezing at −20° C. For susceptibility testing, stock solutions of antibiotic compounds were serially diluted in 50 μL of cation adjusted Mueller-Hinton broth (CAMHB) in polystryrene 96-well round-bottom microtiter plates. To each well, 50 μL of the appropriate mycobacterial cell suspension was added to yield a final concentration of about 1×10^5 CFU/mL. The inoculum used for each isolate was measured by titration in saline with Tween 80 and plating on MH agar. The Mycobacterium abscessus and Mycobacterium fortuitum titer plates were incubated at 37° C. in ambient air for 3-4 days and 5-7 days, respectively. The Mycobacterium chelonae titer plates were incubated at 30° C. in ambient air for 3-5 days. Each isolate was tested at least in duplicate. The MIC was defined as the lowest concentration of antimicrobial agent yielding no visible turbidity.

Mycobacterium chelonae = assay: as above; type: cell-based
Procedure: as §1

Mycobacterium fortuitum = assay: as above; type: cell-based; settings: Mycolicibacterium fortuitum
Procedure: as §1

[1] = test system: rapid-growing mycobacteria (RGM) isolates; assay: MIC (CLSI broth dilution), all RGM isolates; type: cell-based, nontuberculous mycobacteria
M. abscessus complex = assay: MIC (CLSI broth dilution), RGM isolates; type: cell-based; settings: Mycobacteroides abscessus
M. chelonae = assay: MIC (CLSI broth dilution), RGM isolates; type: cell-based; settings: Mycobacteroides chelonae
M. fortuitum group = assay: MIC (CLSI broth dilution), RGM isolates; type: cell-based; settings: Mycolicibacterium fortuitum
M. immunogenum group = assay: MIC (CLSI broth dilution), RGM isolates; type: cell-based; settings: M. immunogenum
M. mucogenium group = assay: MIC (CLSI broth dilution), RGM isolates; type: cell-based
M. smegmatis group = assay: MIC (CLSI broth dilution), RGM isolates; type: cell-based; settings: Mycolicibacterium smegmatis

`CN(C)c1cc(NC(=O)CNC(C)(C)C)c(O)c2c1C[C@H]1C[C@H]3[C@H](N(C)C)C(O)=C(C(N)=O)C(=O)[C@@]3(O)C(O)=C1C2=O` [Tigecycline, tigecycline] was tested, and the MIC50 (Mycobacterium abscessus) was 1 µg/mL (≈ 1.71 µM), the MIC90 (Mycobacterium abscessus) was 2 µg/mL (≈ 3.41 µM) and the MIC (Mycobacterium abscessus; isolate No. 1, BB2) was 2 µg/mL (≈ 3.41 µM). It also gave an MIC (Mycobacterium abscessus; isolate No. 2, BB4) of 2 µg/mL (≈ 3.41 µM), an MIC (Mycobacterium abscessus; isolate No. 3, 5922) of 0.25 µg/mL (≈ 0.427 µM) and an MIC (Mycobacterium abscessus; isolate No. 4, BB3) of 0.06 µg/mL (≈ 0.102 µM). The MIC (Mycobacterium abscessus; isolate No. 5, BB6) was 0.125 µg/mL (≈ 0.213 µM), the MIC (Mycobacterium abscessus; isolate No. 6, 5908) was 2 µg/mL (≈ 3.41 µM) and the MIC (Mycobacterium abscessus; isolate No. 7, BB7) was 2 µg/mL (≈ 3.41 µM). For the same compound, the MIC (Mycobacterium abscessus; isolate No. 8, 6031) was 1 µg/mL (≈ 1.71 µM), the MIC (Mycobacterium abscessus; isolate No. 9, 5785) was 0.5 µg/mL (≈ 0.854 µM) and the MIC (Mycobacterium abscessus; isolate No. 11, 6111) was 0.5 µg/mL (≈ 0.854 µM). For the same compound, the MIC (Mycobacterium abscessus; isolate No. 12, 6005) was 0.5 µg/mL (≈ 0.854 µM), the MIC (Mycobacterium abscessus; isolate No. 16, BB5) was 1 µg/mL (≈ 1.71 µM) and the MIC (Mycobacterium abscessus; isolate No. 19, 5960) was 8 µg/mL (≈ 13.7 µM). The MIC (Mycobacterium abscessus; isolate No. 23, 6025) was 1 µg/mL (≈ 1.71 µM), the MIC50 (Mycobacterium chelonae) was 0.06 µg/mL (≈ 0.102 µM) and the MIC50 (Mycobacterium fortuitum) was 0.25 µg/mL (≈ 0.427 µM). For the same compound, the MIC90 (Mycobacterium fortuitum) was 0.25 µg/mL (≈ 0.427 µM), the MIC (Mycobacterium fortuitum; isolate No. 1, 3349) was 0.25 µg/mL (≈ 0.427 µM) and the MIC (Mycobacterium fortuitum; isolate No. 2, 3499) was 0.015 µg/mL (≈ 0.0256 µM). It also gave an MIC (Mycobacterium fortuitum; isolate No. 3, 2797) of 0.06 µg/mL (≈ 0.102 µM), an MIC (Mycobacterium fortuitum; isolate No. 4, 32) of 0.25 µg/mL (≈ 0.427 µM) and an MIC (Mycobacterium fortuitum; isolate No. 5, 33) of 0.125 µg/mL (≈ 0.213 µM). It also gave an MIC (Mycobacterium fortuitum; isolate No. 6, 3489) of 0.015 µg/mL (≈ 0.0256 µM), an MIC (Mycobacterium fortuitum; isolate No. 7, 3491) of 0.015 µg/mL (≈ 0.0256 µM) and an MIC (Mycobacterium fortuitum; isolate No. 8, 54) of 0.03 µg/mL (≈ 0.0512 µM). The MIC (Mycobacterium fortuitum; isolate No. 9, 38) was 0.06 µg/mL (≈ 0.102 µM), the MIC (Mycobacterium fortuitum; isolate No. 10, 36) was 0.03 µg/mL (≈ 0.0512 µM) and the MIC (Mycobacterium fortuitum; isolate No. 11, 3480) was 0.25 µg/mL (≈ 0.427 µM). The MIC (Mycobacterium fortuitum; isolate No. 12, 3126) was 0.25 µg/mL (≈ 0.427 µM), the MIC (Mycobacterium fortuitum; isolate No. 13, 3579) was 0.25 µg/mL (≈ 0.427 µM) and the MIC (Mycobacterium fortuitum; isolate No. 14, 7484) was 0.5 µg/mL (≈ 0.854 µM). The MIC (Mycobacterium fortuitum; isolate No. 15, 3488) was 0.25 µg/mL (≈ 0.427 µM), the MIC (Mycobacterium fortuitum; isolate No. 16, 3276) was 0.25 µg/mL (≈ 0.427 µM) and the MIC (Mycobacterium fortuitum; isolate No. 17, 3442) was 1 µg/mL (≈ 1.71 µM). For the same compound, the MIC (Mycobacterium fortuitum; isolate No. 18, 3316) was 0.25 µg/mL (≈ 0.427 µM), the MIC (Mycobacterium fortuitum; isolate No. 19, 3490) was 0.25 µg/mL (≈ 0.427 µM) and the MIC (Mycobacterium fortuitum; isolate No. 20, 2491) was 0.5 µg/mL (≈ 0.854 µM). It also gave an MIC50 [1] of 0.125 µg/mL (≈ 0.213 µM), an MIC90 [1] of 0.25 µg/mL (≈ 0.427 µM) and an MIC (M. abscessus complex; isolate 1, M. abscessus complex, erm gene type MAB30) of 0.12 µg/mL (≈ 0.205 µM). For the same compound, the MIC (M. abscessus complex; isolate 2, M. abscessus complex, erm gene type MAB30) was 0.12 µg/mL (≈ 0.205 µM), the MIC (M. abscessus complex; isolate 3, M. abscessus complex, erm gene type MAB30) was 0.25 µg/mL (≈ 0.427 µM) and the MIC (M. abscessus complex; isolate 4, M. abscessus complex, erm gene type massiliense) was 0.25 µg/mL (≈ 0.427 µM). For the same compound, the MIC (M. abscessus complex; isolate 5, M. abscessus complex, erm gene type massiliense/subsp. abs hybrid) was 0.25 µg/mL (≈ 0.427 µM), the MIC (M. abscessus complex; isolate 6, M. abscessus complex, erm gene type Type 1 abscessus) was 0.12 µg/mL (≈ 0.205 µM) and the MIC (M. abscessus complex; isolate 7, M. abscessus complex, erm gene type Type 1 abscessus) was 0.25 µg/mL (≈ 0.427 µM). For the same compound, the MIC (M. abscessus complex; isolate 8, M. abscessus complex, erm gene type Type 1 abscessus) was 0.12 µg/mL (≈ 0.205 µM), the MIC (M. abscessus complex; isolate 9, M. abscessus complex, erm gene type Type 1 abscessus) was 0.25 µg/mL (≈ 0.427 µM) and the MIC (M. abscessus complex; isolate 10, M. abscessus complex, erm gene type Type 1 abscessus) was 0.12 µg/mL (≈ 0.205 µM). It also gave an MIC (M. abscessus complex; isolate 11, M. abscessus complex, erm gene type Type 6 abscessus) of 0.06 µg/mL (≈ 0.102 µM), an MIC (M. abscessus complex; isolate 12, M. abscessus complex, erm gene type Type 6 abscessus) of 0.12 µg/mL (≈ 0.205 µM) and an MIC (M. abscessus complex; isolate 13, M. abscessus complex, erm gene type Type 6 abscessus) of 0.25 µg/mL (≈ 0.427 µM). For the same compound, the MIC (M. abscessus complex; isolate 14, M. abscessus complex, erm gene type Type 6 abscessus) was 0.12 µg/mL (≈ 0.205 µM), the MIC (M. abscessus complex; isolate 15, M. abscessus complex, erm gene type Type 7 abscessus) was 0.06 µg/mL (≈ 0.102 µM) and the MIC (M. abscessus complex; isolate 16, M. abscessus complex, erm gene type Type 7 abscessus) was 0.12 µg/mL (≈ 0.205 µM). For the same compound, the MIC (M. abscessus complex; isolate 17, M. abscessus complex, erm gene type Type 8 abscessus) was 0.12 µg/mL (≈ 0.205 µM), the MIC (M. chelonae; isolate 18, M. chelonae) was 0.12 µg/mL (≈ 0.205 µM) and the MIC (M. chelonae; isolate 19, M. chelonae) was 0.25 µg/mL (≈ 0.427 µM). It also gave an MIC (M. chelonae; isolate 20, M. chelonae) of 0.12 µg/mL (≈ 0.205 µM), an MIC (M. chelonae; isolate 21, M. chelonae) of 0.5 µg/mL (≈ 0.854 µM) and an MIC (M. chelonae; isolate 22, M. chelonae) of 0.25 µg/mL (≈ 0.427 µM). For the same compound, the MIC (M. fortuitum group; isolate 23, M. fortuitum group, M. fortuitum) was 0.03 µg/mL (≈ 0.0512 µM), the MIC (M. fortuitum group; isolate 24, M. fortuitum group, M. fortuitum) was 0.12 µg/mL (≈ 0.205 µM) and the MIC (M. fortuitum group; isolate 25, M. fortuitum group, M. fortuitum) was at most 0.015 µg/mL. For the same compound, the MIC (M. fortuitum group; isolate 26, M. fortuitum group, M. porcinum) was at most 0.015 µg/mL, the MIC (M. fortuitum group; isolate 27, M. fortuitum group, M. porcinum) was 0.03 µg/mL (≈ 0.0512 µM) and the MIC (M. fortuitum group; isolate 28, M. fortuitum group, M. porcinum/M. boenickei) was 0.03 µg/mL (≈ 0.0512 µM). The MIC (M. fortuitum group; isolate 29, M. fortuitum group, M. porcinum/M. boenickei) was 0.03 µg/mL (≈ 0.0512 µM), the MIC (M. fortuitum group; isolate 30, M. fortuitum group, M. porcinum/M. boenickei) was 0.03 µg/mL (≈ 0.0512 µM) and the MIC (M. fortuitum group; isolate 31, M. fortuitum group, M. senegalense) was 0.06 µg/mL (≈ 0.102 µM). For the same compound, the MIC (M. fortuitum group; isolate 32, M. fortuitum group, M. senegalense) was 0.03 µg/mL (≈ 0.0512 µM), the MIC (M. fortuitum group; isolate 33, M. fortuitum group, M. senegalense) was 0.03 µg/mL (≈ 0.0512 µM) and the MIC (M. fortuitum group; isolate 34, M. fortuitum group, M. senegalense) was 0.03 µg/mL (≈ 0.0512 µM). It also gave an MIC (M. immunogenum group; isolate 35, M. immunogenum group) of 0.5 µg/mL (≈ 0.854 µM), an MIC (M. immunogenum group; isolate 36, M. immunogenum group) of 0.12 µg/mL (≈ 0.205 µM) and an MIC (M. immunogenum group; isolate 37, M. immunogenum group) of 0.5 µg/mL (≈ 0.854 µM). For the same compound, the MIC (M. immunogenum group; isolate 38, M. immunogenum group) was 0.5 µg/mL (≈ 0.854 µM), the MIC (M. mucogenium group; isolate 39, M. mucogenicum group, M. mucogenicum) was 0.12 µg/mL (≈ 0.205 µM) and the MIC (M. mucogenium group; isolate 40, M. mucogenicum group, M. mucogenicum) was 0.06 µg/mL (≈ 0.102 µM). It also gave an MIC (M. mucogenium group; isolate 41, M. mucogenicum group, M. mucogenicum) of 0.06 µg/mL (≈ 0.102 µM), an MIC (M. mucogenium group; isolate 42, M. mucogenicum group, M. mucogenicum) of 0.12 µg/mL (≈ 0.205 µM) and an MIC (M. mucogenium group; isolate 43, M. mucogenicum group, M. phocaicum) of 0.12 µg/mL (≈ 0.205 µM). For the same compound, the MIC (M. mucogenium group; isolate 44, M. mucogenicum group, M. phocaicum) was 0.06 µg/mL (≈ 0.102 µM), the MIC (M. mucogenium group; isolate 45, M. mucogenicum group, M. phocaicum) was 0.25 µg/mL (≈ 0.427 µM) and the MIC (M. mucogenium group; isolate 46, M. mucogenicum group, M. phocaicum) was 0.06 µg/mL (≈ 0.102 µM). The MIC (M. mucogenium group; isolate 47, M. mucogenicum group, M. phocaicum) was 0.25 µg/mL (≈ 0.427 µM), the MIC (M. mucogenium group; isolate 48, M. mucogenicum group, M. phocaicum) was 0.03 µg/mL (≈ 0.0512 µM) and the MIC (M. smegmatis group; isolate 49, M. smegmatis group, M. goodii) was at most 0.015 µg/mL. The MIC (M. smegmatis group; isolate 50, M. smegmatis group, M. wolinskyi) was 0.03 µg/mL (≈ 0.0512 µM).
